Here are results for 13 compounds from patent US20020182232A9, “Cosmetic composition comprising at least one ingredient chosen from compounds of formula (I) and salts thereof, use thereof as colouring agent, and novel compounds of formulae (IIa), (IIIa), (IVa), (Va), and (VIa), and salts thereof” (priority 2000, published 2002).

Data set [1] is described as follows: Bleeding: ability to dissolve in a dispersion medium (optical density of supernatant). The format is physicochemical. The following applies: supernatant absorbance 400 to 800 nm, bleeds when O.D. >1.5; for Bleeding in water, O.D.: 1% by weight compound in water + 1% Polysorbate 20; for Bleeding in oil (triglycerides), O.D.: 1% by weight compound in caprylic/capric acid triglycerides. The procedure: 3/Bleeding: Ability to Dissolve in a Dispersion Medium
A dispersion was prepared comprising 1% by weight of test compound in an oil (caprylic/capric acid triglycerides).
A dispersion was also prepared comprising 1% by weight of test compound in a mixture of water and 1% by weight of wetting agent (Polysorbate 20).
The mixture was stirred for 10 minutes using a magnetic bar. 10 g of dispersion were weighed out and placed in centrifuge tubes. This material was centrifuged for 30 minutes at 3000 rpm.
The supernatant liquid was taken up and the optical density was determined by measuring the absorbence on a spectrophotometer from 400 to 800 nm, at a speed of 240 nm/min.
The compound was considered to bleed when the optical density was greater than 1.5.

The nature of data set [2]: Photochemical stability (SUNTEST CPS, colour difference before/after). The class given is physicochemical. The following applies: compacted pure compound, SUNTEST CPS one hour, 765 watts/m^2; UV-unstable when ΔE >6. As for the experimental part: 4/Photochemical Stability
The UV stability was carried out by leaving the compacted pure test compound (100 bar, FAP crucible) in the SUNTEST CPS for one hour. The SUNTEST CPS is an apparatus sold by Heraeus. […] The apparatus was used at 765 watts/m^2 and emits UVA, UVB, and visible light over a range of 300 to 800 nm.
The difference in colour ΔE before and after the SUNTEST was measured by colorimetry.
The compound was considered as UV-unstable when the ΔE was >6.

With `CC(C)Oc1cc2c3c(oc2c2ccccc12)C(=O)c1ccccc1C3=O` [5-isopropyloxydinaphtho-(1,2-b:2′,3′-d)furan-7,12-dione], in data set [1], the “Bleeding in water, O.D.” value is listed as “O.D. = 0.03”. For the same compound, in data set [2], the “Photochemical stability ΔE” value was “ΔE = 0.81”.
One may read the melting point as the temperature of the solid-liquid transition. Turning to `COc1ccc2c(ccc3oc4c(c32)C(=O)c2ccccc2C4=O)c1` [3-methoxydinaphtho-(2,1-b:2′,3′-d)furan-8,13-dione], the melting point came out at 292.1 °C. Besides, in data set [1], the “Bleeding in oil (triglycerides), O.D.” value is reported as “O.D. = 0.88” and the “Bleeding in water, O.D.” value was “O.D. = 0.04”. For the same compound, the “Photochemical stability ΔE” value in data set [2] was “ΔE = 0.81”.
For `O=C1c2ccccc2C(=O)c2c1oc1ccc3ccccc3c21` [Dinaphtho(2,1-b:2′,3′-d)furan-8,13-dione, dinaphtho(2,1-b:2′,3′-d)furan-8,13-dione], the “Bleeding in water, O.D.” value in data set [1] is recorded as “O.D. = 0.01”. Also, in data set [2], the “Photochemical stability ΔE” value was “ΔE = 0.23”.
The like results for `O=C1c2ccccc2C(=O)c2c1oc1c2ccc2ccccc21` [Dinaphtho(1,2-b:2′,3′-d)furan-7,12-dione, dinaphtho(1,2-b:2′,3′-d)furan-7,12-dione] were, in that order, “O.D. = 0.13” and “ΔE = 3.91”.
With `O=C1c2ccccc2C(=O)c2c1oc1ccc3cc(Br)ccc3c21` [3-bromodinaphtho(2,1-b:-2′,3′-d)furan-8,13-dione], in data set [1], the “Bleeding in oil (triglycerides), O.D.” value was “O.D. = 0.92” and the “Bleeding in water, O.D.” value is given as “O.D. = 0.03”. Also, in data set [2], the “Photochemical stability ΔE” value was “ΔE = 2.61”.
On to `O=C1c2ccccc2C(=O)c2c1oc1c2ccc2ccc(O)cc21` [2-Hydroxy-dinaphtho(1,2-b:2′,3′-d)furan-7,12-dione], for which, in data set [1], the “Bleeding in water, O.D.” value is listed as “O.D. = 0.23”. In data set [2], the “Photochemical stability ΔE” value is “ΔE = 1.32”.
On to `O=C1c2ccccc2C(=O)c2c1oc1c2cc(Cl)c2ccccc21` [5-chlorodinaphtho-(1,2-b:2′,3′-d)furan-7,12-dione], for which the “Bleeding in water, O.D.” value in data set [1] is “O.D. = 0.02”. Moreover, the “Photochemical stability ΔE” value in data set [2] is “ΔE = 1.36”.
For `COc1ccc2ccc3oc4c(c3c2c1)C(=O)c1ccccc1C4=O` [2-methoxydinaphtho-(2,1-b:2′,3′-d)furan-8,13-dione], in that order: “O.D. = 0.30” and “ΔE = 0.28”.
For `O=C1c2ccccc2C(=O)c2c1oc1cc(O)c3ccccc3c21` [5-hydroxydinaphtho(2,1-b:2′,3′-d)furan-8,13-dione], in data set [1], the “Bleeding in water, O.D.” value is on record as “O.D. = 0.16”. The “Photochemical stability ΔE” value in data set [2] is “ΔE = 0.10”.
The like results for `O=C(O)c1nn(-c2ccc(S(=O)(=O)O)cc2)c(O)c1N=Nc1ccc(S(=O)(=O)O)cc1` [FD&C Yellow No. 5, reference compound] were, in that order, “O.D. = 0.08” and “ΔE = 6.63”.
For `CCOc1cc2c3c(oc2c2ccccc12)C(=O)c1ccccc1C3=O` [5-ethoxydinaphtho(1,2-b:2′,3′-d)furan-7,12-dione], in that order: “O.D. = 0.27” and “ΔE = 0.24”.
Take `O=S(=O)([O-])c1ccc(N=Nc2c(O)ccc3cc(S(=O)(=O)[O-])ccc23)cc1.[Na+].[Na+]` [FD&C Yellow No. 6, reference compound]: the “Bleeding in water, O.D.” value in data set [1] was “O.D. = 0.58”. Also, the “Photochemical stability ΔE” value in data set [2] was “ΔE = 10.06”.
In the case of `CCCCCCOc1cc2c3c(oc2c2ccccc12)C(=O)c1ccccc1C3=O` [5-hexyloxydinaphtho-(1,2-b:2′,3′-d)furan-7,12-dione], the melting point worked out at 173.9 °C. For the same compound, the “Bleeding in water, O.D.” value in data set [1] is “O.D. = 0.29”. Moreover, in data set [2], the “Photochemical stability ΔE” value is listed as “ΔE = 0.91”.
